The text below walks through data of ChEMBL document CHEMBL1126071, “Cyclic pentapeptide endothelin antagonists with high ETA selectivity. Potency- and solubility-enhancing modifications” (J Med Chem, 1992).

Residues, ends and D or L forms follow the SMILES beside them.

This assay has as its target T1, Endothelin-1 receptor (Sus scrofa, UniProt Q29010).
T1 sequence (Q29010 whole entry): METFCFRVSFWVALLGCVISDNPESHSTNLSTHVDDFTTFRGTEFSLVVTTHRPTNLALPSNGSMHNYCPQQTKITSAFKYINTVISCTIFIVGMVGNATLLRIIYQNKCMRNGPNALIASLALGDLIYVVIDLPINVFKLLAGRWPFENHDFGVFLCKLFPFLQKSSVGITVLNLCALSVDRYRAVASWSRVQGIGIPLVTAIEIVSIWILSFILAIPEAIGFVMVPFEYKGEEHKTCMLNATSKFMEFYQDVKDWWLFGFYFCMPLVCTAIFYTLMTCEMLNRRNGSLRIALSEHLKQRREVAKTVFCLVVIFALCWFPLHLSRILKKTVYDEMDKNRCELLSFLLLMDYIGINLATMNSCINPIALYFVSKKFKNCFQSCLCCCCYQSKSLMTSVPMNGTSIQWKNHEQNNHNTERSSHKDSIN
The assay can be described thus: Binding activity against Endothelin A receptor of Porcine aortic smooth muscle membranes.

For the molecule `CC[C@H](C)[C@H]1NC(=O)[C@H](C)NC(=O)[C@@H](CCC(=O)O)NC(=O)[C@@H](Cc2c[nH]c3ccccc23)NC(=O)[C@H](CC(C)C)NC1=O` (HELM PEPTIDE1{A.[CC[C@H](C)[C@@H](N[*:1])C(=O)[*:2]].L.[dW].[dE]}$PEPTIDE1,PEPTIDE1,1:R1-5:R2$$$V2.0), the IC50 max is 1.4 µM.

On to `CC(C)C[C@@H]1NC(=O)[C@@H](C(C)C)NC(=O)[C@H](C)NC(=O)[C@@H](CC(=O)O)NC(=O)[C@@H](Cc2c[nH]c3ccccc23)NC1=O` (HELM PEPTIDE1{A.[dV].L.[dW].[dD]}$PEPTIDE1,PEPTIDE1,1:R1-5:R2$$$V2.0), for which the IC50 max was found to be 0.11 µM. In the case of `CC(C)C[C@@H]1NC(=O)[C@@H](C(C)C)NC(=O)[C@H](C)NC(=O)[C@@H](CCC(=O)O)NC(=O)[C@@H](Cc2c[nH]c3ccccc23)NC1=O` (HELM PEPTIDE1{A.[dV].L.[dW].[dE]}$PEPTIDE1,PEPTIDE1,1:R1-5:R2$$$V2.0), the IC50 max was 3 µM. In the case of `CC(C)[C@H]1NC(=O)[C@H](C)NC(=O)[C@@H](CC(=O)O)NC(=O)[C@@H](Cc2c[nH]c3ccccc23)NC(=O)[C@@H]2CCCN2C1=O` (HELM PEPTIDE1{A.[dV].P.[dW].[dD]}$PEPTIDE1,PEPTIDE1,1:R1-5:R2$$$V2.0) it was 8.5 µM. For `CC(C)C[C@@H]1NC(=O)[C@@H](C(C)C)NC(=O)[C@@H]2CCCN2C(=O)[C@@H](CC(=O)O)NC(=O)[C@@H](Cc2c[nH]c3ccccc23)NC1=O` (HELM PEPTIDE1{L.[dW].[dD].P.[dV]}$PEPTIDE1,PEPTIDE1,1:R1-5:R2$$$V2.0), the IC50 max came out at 0.022 µM. Molecule `CC(C)C[C@@H]1NC(=O)[C@@H](C(C)C)NC(=O)CN(C)C(=O)[C@@H](CC(=O)O)NC(=O)[C@@H](Cc2c[nH]c3ccccc23)NC1=O` (HELM PEPTIDE1{L.[dW].[dD].[Sar].[dV]}$PEPTIDE1,PEPTIDE1,1:R1-5:R2$$$V2.0) registered an IC50 max of 0.032 µM. Regarding `CC(C)C[C@@H]1NC(=O)[C@@H](C(C)C)NC(=O)[C@H](C)N(C)C(=O)[C@@H](CC(=O)O)NC(=O)[C@@H](Cc2c[nH]c3ccccc23)NC1=O` (HELM PEPTIDE1{L.[dW].[dD].[meA].[dV]}$PEPTIDE1,PEPTIDE1,1:R1-5:R2$$$V2.0), the IC50 max worked out at 0.034 µM. The molecule `CC(C)C[C@@H]1NC(=O)[C@@H](C(C)C)NC(=O)[C@@H]2CCCN2C(=O)[C@@H](CCC(=O)O)NC(=O)[C@@H](Cc2c[nH]c3ccccc23)NC1=O` (HELM PEPTIDE1{L.[dW].[dE].P.[dV]}$PEPTIDE1,PEPTIDE1,1:R1-5:R2$$$V2.0) gave an IC50 max of 0.41 µM. On to `CC(C)C[C@H]1C(=O)N[C@H](Cc2c[nH]c3ccccc23)C(=O)N[C@H](CC(=O)O)C(=O)N2CCC[C@H]2C(=O)N[C@H](C(C)C)C(=O)N1C` (HELM PEPTIDE1{[meL].[dW].[dD].P.[dV]}$PEPTIDE1,PEPTIDE1,1:R1-5:R2$$$V2.0), for which the IC50 max is 0.035 µM.
